Experimental findings from patent US9060971B2, “Combination pharmaceutical agents as inhibitors of HCV replication” (Enanta Pharmaceuticals, Inc., priority 2010, dated 2015) are described below.

The assay relates to HCV 1b genotype replicon. The experiment in a line: HCV replicon drug screening assay (quantitative RT-PCR or luciferase), genotype 1b. The assay is classed as cell-based. Conditions: Hepatitis C virus; HCV 1b genotype replicon; quantitative RT-PCR or luciferase assay; read-out: Genotype-1b replicon EC50 Range. From the text: HCV replicon cell lines (kindly provided by R. Bartenschlager) isolated from colonies as described by Lohman et. al. (Lohman et al. (1999) Science 285: 110-113, expressly incorporated by reference in its entirety) and used for all experiments. The HCV replicon has the nucleic acid sequence set forth in EMBL Accession No.: AJ242651, the coding sequence of which is from nucleotides 1801 to 8406.
The coding sequence of the published HCV replicon was synthesized and subsequently assembled in a modified plasmid pBR322 (Promega, Madison, Wis.) using standard molecular biology techniques. One replicon cell line (“SGR 11-7”) stably expresses HCV replicon RNA which consists of (i) the HCV 5′UTR fused to the first 12 amino acids of the capsid protein, (ii) the neomycin phosphotransferase gene (neo), (iii) the IRES from encephalomyocarditis virus (EMCV), and (iv) HCV NS2 to NS5B genes and the HCV 3′UTR. Another replicon cell line (“Huh-luc/neo-ET”) described by Vrolijk et. al. (Vrolijk et. al. (2003) Journal of Virological Methods 110:201-209, expressly incorporated by reference in its entirety) stably expresses HCV replicon RNA which consists of (i) the HCV 5′UTR fused to the first 12 amino acids of the capsid protein, (ii) the firefly luciferase reporter gene, (iii) the ubiquitin gene, (iv) the neomycin phosphotransferase gene (neo), (v) the IRES from encephalomyocarditis virus (EMCV), and (vi) HCV NS3 to NS5B genes that harbor cell culture adaptive mutations (E1202G, T12801, K1846T) and the HCV 3′UTR.
These cell lines are maintained at 37° C., 5% CO2, 100% relative humidity in DMEM (Cat#11965-084, Invitrogen), with 10% fetal calf serum (“FCS”, Invitrogen), 1% non-essential amino acids (Invitrogen), 1% of Glutamax (Invitrogen), 1% of 100× penicillin/streptomycin (Cat#15140-122, Invitrogen) and Geneticin (Cat#10131-027, Invitrogen) at 0.75 mg/ml or 0.5 mg/ml for 11-7 and Huh-luc/neo-ET cells, respectively.
EC50 values of single agent compounds and combinations were determined by HCV RNA detection using quantitative RT-PCR, according to the manufacturer's instructions, with a TAQMAN® One-Step RT-PCR Master Mix Reagents Kit (Cat#AB 4309169, Applied Biosystems) on an ABI Model 7500 thermocycler. The TaqMan primers to use for detecting and quantifying HCV RNA are 5′-GCTGCGGCCTGTCGAGCT-3′ (SEQ ID NO: 1), 5′-CAAGGTCGTCTCCGCATAC-3′ (SEQ ID NO: 2) and the probe 5′-FAM-[…]-BHQ-3′ (SEQ ID NO: 3) obtained from Integrated DNA Technologies. HCV RNA is normalized to GAPDH RNA levels in drug-treated cells, which is detected and quantified using the Human GAPDH Endogenous Control Mix (Applied Biosystems, AB 4310884E). Total cellular RNA is purified from 96-well plates using the RNAqueous 96 kit (Ambion, Cat#AM1812). Chemical agent cytotoxicity was evaluated using an MTS assay according to the manufacturer's directions (Promega).
The compounds described herein can be effective against the HCV 1b genotype. It should also be understood that the compounds can inhibit multiple genotypes of HCV. In one embodiment, compounds of Formula (I) are active against the 1a, 1b, 2a, 2b, 3a, 4a, and 5a genotypes. […] The EC50 ranges were classified into the following groups: A>10 nM; B 1-10 nM; C<1 nM. The potential cytotoxicities of each agent were analyzed in parallel by MTS assay and are greater than 3 uM for all agents.

Regarding `CC(C)[C@H](Nc1ncccn1)C(=O)N1CCC[C@H]1c1nc2cc(-c3ccc(-c4ccc5[nH]c([C@@H]6CCCN6C(=O)[C@@H](Nc6ncccn6)C(C)C)nc5c4)cc3)ccc2[nH]1` [Compound 19], the EC50 was less than 1 nM. As for `COC(=O)N[C@H](C(=O)N1CCC[C@H]1c1nc2cc(-c3ccc4cc(-c5ccc6[nH]c([C@@H]7CCCN7C(=O)[C@@H](NC(=O)OC)C(C)C)nc6c5)ccc4c3)ccc2[nH]1)C(C)C` [Compound 20], the figure is less than 1 nM. As to `COC(=O)N[C@H](C(=O)N1CCC[C@H]1c1nc2cc(-c3ccc4nc(-c5ccc6[nH]c([C@@H]7CCCN7C(=O)[C@@H](NC(=O)OC)C(C)C)nc6c5)ncc4c3)ccc2[nH]1)C(C)C` [Compound 21], the EC50 was less than 1 nM. As for `O=C(Cc1ccccn1)N1CCC[C@H]1c1nc2cc(-c3ccc(-c4ccc5[nH]c([C@@H]6CCCN6C(=O)Cc6ccccn6)nc5c4)cc3)ccc2[nH]1` [Compound 22], the EC50 was less than 1 nM.

Turning to `COCCOC(=O)N[C@H](C(=O)N1CCC[C@H]1c1nc2cc(-c3ccc(-c4ccc5[nH]c([C@@H]6CCCN6C(=O)[C@@H](NC(=O)OCCOC)C(C)C)nc5c4)cc3)ccc2[nH]1)C(C)C` [Compound 23], the EC50 is greater than 10 nM. As for `COC(=O)N[C@H](C(=O)N1CCC[C@H]1c1nc2cc(-c3ccc(-c4ccc5[nH]c([C@@H]6CCCN6C(=O)[C@@H](NC(=O)OC)C6CCCC6)nc5c4)cc3)ccc2[nH]1)C1CCCC1` [Compound 24], the EC50 was less than 1 nM.

In the case of `COC(=O)N[C@@H](CC(C)C)C(=O)N1CCC[C@H]1c1nc2cc(-c3ccc(-c4ccc5[nH]c([C@@H]6CCCN6C(=O)[C@H](CC(C)C)NC(=O)OC)nc5c4)cc3)ccc2[nH]1` [Compound 25], the EC50 was less than 1 nM.

Take `CC[C@H](C)[C@H](NC(=O)OC)C(=O)N1CCC[C@H]1c1nc2cc(-c3ccc(-c4ccc5[nH]c([C@@H]6CCCN6C(=O)[C@@H](NC(=O)OC)[C@@H](C)CC)nc5c4)cc3)ccc2[nH]1` [Compound 26]: the EC50 is less than 1 nM. The figure for `COC(=O)N[C@@H](C(=O)N1CCC[C@H]1c1nc2cc(CC=CCc3ccc4[nH]c([C@@H]5CCCN5C(=O)[C@H](NC(=O)OC)c5ccccc5)nc4c3)ccc2[nH]1)c1ccccc1` [Compound 28] is less than 1 nM; for `COC(=O)N[C@@H](C(=O)N1CCC[C@H]1c1nc2cc(CCCCc3ccc4[nH]c([C@@H]5CCCN5C(=O)[C@H](NC(=O)OC)c5ccccc5)nc4c3)ccc2[nH]1)c1ccccc1` [Compound 29] it is less than 1 nM; for `COC(=O)N[C@@H](C(=O)N1CCC[C@H]1c1nc2cc(CC=Cc3ccc4nc([C@@H]5CCCN5C(=O)[C@H](NC(=O)OC)c5ccccc5)[nH]c4c3)ccc2[nH]1)c1ccccc1` [Compound 30] it is less than 1 nM.

With `COC(=O)N[C@@H](C(=O)N1CCC[C@H]1c1nc2cc(CCCc3ccc4nc([C@@H]5CCCN5C(=O)[C@H](NC(=O)OC)c5ccccc5)[nH]c4c3)ccc2[nH]1)c1ccccc1` [Compound 31], the EC50 was less than 1 nM. On to `COC(=O)N[C@@H](C(=O)N1CCC[C@H]1c1nc2cc(NC(=O)Nc3ccc4nc([C@@H]5CCCN5C(=O)[C@H](NC(=O)OC)c5ccccc5)[nH]c4c3)ccc2[nH]1)c1ccccc1` [Compound 32], for which the EC50 was greater than 10 nM. For `COC(=O)N[C@H](C(=O)N1CCC[C@H]1c1nc2cc(C#Cc3ccc(-c4ccc5[nH]c([C@@H]6CCCN6C(=O)[C@@H](NC(=O)OC)C(C)C)nc5c4)cc3)ccc2[nH]1)C(C)C` [Compound 33], the EC50 is less than 1 nM. Take `COC(=O)N[C@H](C(=O)N1CCC[C@H]1c1nc2cc(CCc3ccc(-c4ccc5[nH]c([C@@H]6CCCN6C(=O)[C@@H](NC(=O)OC)C(C)C)nc5c4)cc3)ccc2[nH]1)C(C)C` [Compound 34]: the EC50 is less than 1 nM. As for `COC(=O)N[C@@H](C(=O)N1CCC[C@H]1c1ncc(-c2ccc(-c3ccc4[nH]c([C@@H]5CCCN5C(=O)[C@H](NC(=O)OC)c5ccccc5)nc4c3)cc2)[nH]1)c1ccccc1` [Compound 35], the figure is less than 1 nM; as for `COC(=O)N[C@@H](C(=O)N1CCC[C@H]1c1nc(-c2ccc(C#Cc3ccc4[nH]c([C@@H]5CCCN5C(=O)[C@H](NC(=O)OC)c5ccccc5)nc4c3)cc2)c[nH]1)c1ccccc1` [Compound 36], less than 1 nM; as for `COC(=O)N[C@@H](C(=O)N1CCC[C@H]1c1ncc(-c2ccc(CCc3ccc4nc([C@@H]5CCCN5C(=O)[C@H](NC(=O)OC)c5ccccc5)[nH]c4c3)cc2)[nH]1)c1ccccc1` [Compound 37], less than 1 nM. As for `COC(=O)N[C@@H](C(=O)N1CCC[C@H]1c1nc(-c2ccc(/C=C/c3ccc4[nH]c([C@@H]5CCCN5C(=O)[C@H](NC(=O)OC)c5ccccc5)nc4c3)cc2)c[nH]1)c1ccccc1` [Compound 38], the figure is less than 1 nM; as for `COC(=O)N[C@@H](C(=O)N1CCC[C@H]1c1nc(-c2ccc(C#Cc3ccc4[nH]c([C@@H]5CCCN5C(=O)[C@H](NC(=O)OC)c5ccccc5)nc4c3)cc2)n[nH]1)c1ccccc1` [Compound 39], less than 1 nM.

Consider `COC(=O)N[C@@H](C(=O)N1CCC[C@H]1c1nc(-c2ccc(CCc3ccc4[nH]c([C@@H]5CCCN5C(=O)[C@H](NC(=O)OC)c5ccccc5)nc4c3)cc2)n[nH]1)c1ccccc1` [Compound 40], for which the EC50 is less than 1 nM. The figure for `COC(=O)N[C@@H](C(=O)N1CCC[C@H]1c1cc(-c2ccc(C#Cc3ccc4[nH]c([C@@H]5CCCN5C(=O)[C@H](NC(=O)OC)c5ccccc5)nc4c3)cc2)n[nH]1)c1ccccc1` [Compound 41] is less than 1 nM. Regarding `COC(=O)N[C@@H](C(=O)N1CCC[C@H]1c1cc(-c2ccc(CCc3ccc4[nH]c([C@@H]5CCCN5C(=O)[C@H](NC(=O)OC)c5ccccc5)nc4c3)cc2)n[nH]1)c1ccccc1` [Compound 42], the EC50 was less than 1 nM. The figure for `COC(=O)N[C@H](C(=O)N1CCC[C@H]1c1ncc(-c2ccc(CCCc3ccc4[nH]c([C@@H]5CCCN5C(=O)[C@@H](NC(=O)OC)C(C)C)nc4c3)cc2)[nH]1)C(C)C` [Compound 43] is less than 1 nM; for `COC(=O)N[C@H](C(=O)N1CCC[C@H]1c1nc(-c2ccc(OCc3ccc4[nH]c([C@@H]5CCCN5C(=O)[C@@H](NC(=O)OC)C(C)C)nc4c3)cc2)c[nH]1)C(C)C` [Compound 44] it is less than 1 nM; for `COC(=O)N[C@H](C(=O)N1CCC[C@H]1c1nc(-c2ccc(/C=C/c3ccc4[nH]c([C@@H]5CCCN5C(=O)[C@@H](NC(=O)OC)C(C)C)nc4c3)s2)c[nH]1)C(C)C` [Compound 45] it is less than 1 nM. The figure for `COC(=O)N[C@H](C(=O)N1CCC[C@H]1c1nc(-c2ccc(CCc3ccc4[nH]c([C@@H]5CCCN5C(=O)[C@@H](NC(=O)OC)C(C)C)nc4c3)s2)c[nH]1)C(C)C` [Compound 46] is less than 1 nM. The figure for `COC(=O)N[C@H](C(=O)N1CCC[C@H]1c1nc(-c2ccc(CCCc3ccc4nc([C@@H]5CCCN5C(=O)[C@@H](NC(=O)OC)C(C)C)[nH]c4c3)s2)c[nH]1)C(C)C` [Compound 47] is less than 1 nM.

Regarding `COC(=O)N[C@H](C(=O)N1CCC[C@H]1c1nc(-c2ccc3cc(-c4ccc5[nH]c([C@@H]6CCCN6C(=O)[C@@H](NC(=O)OC)C(C)C)nc5c4)ccc3c2)c[nH]1)C(C)C` [Compound 48], the EC50 was less than 1 nM.

With `COC(=O)N[C@H](C(=O)N1CCC[C@H]1c1nc(-c2ccc3cc(-c4ccc5[nH]c([C@@H]6CCCN6C(=O)[C@@H](NC(=O)OC)[C@@H](C)OC)nc5c4)ccc3c2)c[nH]1)[C@@H](C)OC` [Compound 49], the EC50 is less than 1 nM. The figure for `COC(=O)N[C@H](C(=O)N1CCC[C@H]1c1nc(-c2ccc3cc(-c4ccc5[nH]c([C@@H]6CCCN6C(=O)[C@H](NC(=O)OC)c6ccccc6)nc5c4)ccc3c2)c[nH]1)[C@@H](C)OC` [Compound 51] is less than 1 nM.

As usually defined, the EC50 is the concentration at which the effect is half-maximal.
